The text below walks through data of patent US20260158009A1 (GENZYME CORPORATION, priority 2023, published 2026).

Test [1] addresses T1, hRIPK1 (aa 1-375) fusion protein (Homo sapiens, UniProt Q13546).
T1 construct: hRIPK1 (aa 1-375) fusion protein
T1 sequence (Q13546 1-375): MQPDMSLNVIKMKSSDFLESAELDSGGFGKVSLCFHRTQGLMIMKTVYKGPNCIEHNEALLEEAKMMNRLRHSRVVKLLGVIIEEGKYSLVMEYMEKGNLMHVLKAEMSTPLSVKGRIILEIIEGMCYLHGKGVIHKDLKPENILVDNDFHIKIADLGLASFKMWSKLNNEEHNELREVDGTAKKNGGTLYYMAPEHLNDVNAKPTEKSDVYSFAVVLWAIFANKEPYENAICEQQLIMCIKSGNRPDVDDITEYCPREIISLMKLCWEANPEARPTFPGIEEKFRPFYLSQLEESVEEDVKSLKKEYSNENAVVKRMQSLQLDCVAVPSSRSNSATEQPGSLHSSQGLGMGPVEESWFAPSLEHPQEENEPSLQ
The experiment in a line: ADP-Glo kinase assay: catalytic activity of RIPK1 (autophosphorylation, conversion of ATP to ADP). In kind it is biochemical. A digest of the protocol:
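hRIPK1 (aa 1-375) fusion protein (3.6 μg/ml final) was preincubated 30 min at rt with compound (33300-1.69 nM, 1% DMSO), then 50 μM ATP was added for 240 min at rt. ADP from autophosphorylation was measured by ADP-Glo luminescence and curves fitted by nonlinear regression.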
(In general: ADP-Glo turns the ADP formed in a reaction into a luminescent signal.)

The subject of test [2] is U937 cells. The test is described as follows: Cellular assay in U937 cells: activity of RIPK1 inhibitors on TNFα/zVAD.fmk-induced cell death (necroptosis), CellTiter 96 AQueous (MTS) readout. In kind it is cell-based. The conditions noted are these: Homo sapiens, U-937. A digest of the protocol: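 Necroptosis was measured by viable-cell MTS reduction (4 h, absorbance 490 nm) after overnight (18–24 h) 37° C culture. Cell suspensions of U937 cells carried TNFα (100 ng/ml) plus zVAD.fmk (50 μM) before compound was added. A 10-point curve (10 μM–0.26 nM or 1 μM–0.07 nM) was run in duplicate, normalised to the control lacking TNFα/zVAD.fmk.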

As to `N#Cc1cc(F)cc([C@@H]2CCON2C(=O)[C@H]2CC[C@H](Cc3cc(F)c4c(c3)C(=O)NC4)CC2)c1` [compound 219, trans-3-fluoro-5-[(3S)-2-[4-[(7-fluoro-3-oxo-isoindolin-5-yl)methyl]cyclohexanecarbonyl]isoxazolidin-3-yl]benzonitrile], the figures for the IC50 in test [1] and in test [2] were 0.017 µM and 0.003 µM, respectively.
Turning to `N#Cc1cc2ncn(C[C@H]3CC[C@H](C(=O)N4OCC[C@H]4c4cc(F)cc(F)c4)CC3)c2cc1F` [compound 10, trans-1-((4-((S)-3-(3,5-difluorophenyl)isoxazolidine-2-carbonyl)cyclohexyl)methyl)-6-fluoro-1H-benzo[d]imidazole-5-carbonitrile], the IC50 (as a rule, the concentration that inhibits the measured activity by half) was 0.043 µM in test [1] and 0.008 µM in test [2].
Turning to `NC(=O)c1ccc2ccn(C[C@H]3CC[C@H](C(=O)N4OCC[C@H]4c4cc(F)cc(F)c4)CC3)c2c1` [compound 105, trans-1-((4-((S)-3-(3,5-difluorophenyl)isoxazolidine-2-carbonyl)cyclohexyl)methyl)-1H-indole-6-carboxamide], the values for the concentration for half-maximal inhibition (IC50) in test [1] and in test [2] were 0.015 µM and 0.004 µM, respectively.
The corresponding values for `N#Cc1cc(F)cc([C@@H]2CCON2C(=O)[C@H]2CC[C@H](Cn3cc4c(F)cc(C#N)cc4n3)CC2)c1` [compound 34, trans-2-((4-((S)-3-(3-cyano-5-fluorophenyl)isoxazolidine-2-carbonyl)cyclohexyl)methyl)-4-fluoro-2H-indazole-6-carbonitrile] are 0.037 µM and 0.069 µM.
The corresponding values for `N#Cc1cc(F)cc([C@@H]2CCON2C(=O)[C@H]2CC[C@H](Cn3ncc4ccc(C#N)cc43)CC2)c1` [compound 28, trans-1-((4-((S)-3-(3-cyano-5-fluorophenyl)isoxazolidine-2-carbonyl)cyclohexyl)methyl)-1H-indazole-6-carbonitrile] are 0.019 µM and 0.003 µM.
With `Cc1cc([C@@H]2CCON2C(=O)[C@H]2CC[C@H](Cn3cnc4c(F)cc(C#N)cc43)CC2)co1` [compound 38, trans-4-fluoro-1-((4-((S)-3-(5-methylfuran-3-yl)isoxazolidine-2-carbonyl)cyclohexyl)methyl)-1H-benzo[d]imidazole-6-carbonitrile], the half-maximal inhibitory concentration (IC50) in test [1] was determined as 0.032 µM; in test [2], 0.03 µM.
The corresponding values for `Cc1ccc([C@@H]2CCON2C(=O)[C@H]2CC[C@H](Cc3cc(C)ncc3Cl)CC2)cn1` [compound 389, trans-[4-[(5-chloro-2-methylpyridin-4-yl)methyl]cyclohexyl]-[(3S)-3-(6-methylpyridin-3-yl)-1,2-oxazolidin-2-yl]methanone] are 0.02 µM and 0.013 µM.
The corresponding values for `Cn1cc(C[C@H]2CC[C@H](C(=O)N3OCC[C@H]3c3cncc(C#N)c3)CC2)cn1` [compound 235, trans-5-[(3S)-2-[4-[(1-methylpyrazol-4-yl)methyl]cyclohexanecarbonyl]isoxazolidin-3-yl]pyridine-3-carbonitrile] are 0.035 µM and 0.152 µM.
The corresponding values for `O=C([C@H]1CC[C@H](Cn2ccc3ncc(F)cc32)CC1)N1OCC[C@H]1c1cc(F)cc(F)c1` [compound 94, trans-((S)-3-(3,5-difluorophenyl)isoxazolidin-2-yl)(4-((6-fluoro-1H-pyrrolo[3,2-b]pyridin-1-yl)methyl)cyclohexyl)methanone] are 0.019 µM and 0.001 µM.
Consider `N#Cc1cc(F)cc([C@@H]2CCON2C(=O)[C@H]2CC[C@H](Cc3ccc4c(c3)C(=O)NC4)CC2)c1` [compound 144, trans-3-fluoro-5-[(3S)-2-[4-[(3-oxoisoindolin-5-yl)methyl]cyclohexanecarbonyl]isoxazolidin-3-yl]benzonitrile], for which the half-maximal inhibitory concentration (IC50) came to 0.022 µM in test [1] and 0.003 µM in test [2].
For `Cc1nccn1-c1cc(F)cc(C[C@H]2CC[C@H](C(=O)N3OCC[C@H]3c3cncc(C#N)c3)CC2)c1` [compound 210, trans-5-[(3S)-2-[4-[[3-fluoro-5-(2-methylimidazol-1-yl)phenyl]methyl]cyclohexanecarbonyl]isoxazolidin-3-yl]pyridine-3-carbonitrile], the IC50 in test [1] is 0.017 µM; in test [2], 0.025 µM.
`Cc1nn(C[C@H]2CC[C@H](C(=O)N3OCC[C@H]3c3cc(F)cc(F)c3)CC2)c2cc(C(N)=O)cc(F)c12` [compound 103, trans-1-((4-((S)-3-(3,5-difluorophenyl)isoxazolidine-2-carbonyl)cyclohexyl)methyl)-4-fluoro-3-methyl-1H-indazole-6-carboxamide]: the results for the IC50 in test [1] and in test [2] were 0.023 µM and 0.022 µM, respectively.
On to `O=C([C@H]1CC[C@H](Cc2cncnc2)CC1)N1OCC[C@H]1c1cnccn1` [compound 248, trans-[(3S)-3-pyrazin-2-ylisoxazolidin-2-yl]-[4-(pyrimidin-5-ylmethyl)cyclohexyl]methanone], for which the IC50 turned out to be 0.073 µM in test [1] and 0.666 µM in test [2].
The corresponding values for `Cc1nc2ccc(C[C@H]3CC[C@H](C(=O)N4OCC[C@H]4c4ccc(F)c(F)c4)CC3)cn2n1` [compound 261, trans-[(3S)-3-(3,4-difluorophenyl)isoxazolidin-2-yl]-[4-[(2-methyl-[1,2,4]triazolo[1,5-a]pyridin-6-yl)methyl]cyclohexyl]methanone] are 0.023 µM and 0.017 µM.
For the molecule `N#Cc1cnc2ccn(C[C@H]3CC[C@H](C(=O)N4OCC[C@H]4c4cc(F)cc(F)c4)CC3)c2c1` [compound 17, trans-1-((4-((S)-3-(3,5-difluorophenyl)isoxazolidine-2-carbonyl)cyclohexyl)methyl)-1H-pyrrolo[3,2-b]pyridine-6-carbonitrile], the values for the IC50 in test [1] and in test [2] were 0.021 µM and 0.002 µM, respectively.
In the case of `CNC(=O)c1ccc(F)c(C[C@H]2CC[C@H](C(=O)N3OCC[C@H]3c3cc(F)cc(C#N)c3)CC2)c1` [compound 177, trans-3-[[4-[(3S)-3-(3-cyano-5-fluoro-phenyl)isoxazolidine-2-carbonyl]cyclohexyl]methyl]-4-fluoro-N-methyl-benzamide], the values for the half-inhibitory concentration (IC50) in test [1] and in test [2] were 0.011 µM and 0.005 µM, respectively.
In the case of `O=C1NCc2ccc(C[C@H]3CC[C@H](C(=O)N4OCC[C@H]4c4cncc(F)c4)CC3)cc21` [compound 155, trans-6-[[4-[(3S)-3-(5-fluoro-3-pyridyl)isoxazolidine-2-carbonyl]cyclohexyl]methyl]isoindolin-1-one], the half-inhibitory concentration (IC50) turned out to be 0.015 µM in test [1] and 0.019 µM in test [2].
The corresponding values for `O=C([C@H]1CC[C@H](Cc2ccc(C3(O)COC3)cc2)CC1)N1OCC[C@H]1c1cc(F)cc(F)c1` [compound 171, trans-[(3S)-3-(3,5-difluorophenyl)isoxazolidin-2-yl]-[4-[[4-(3-hydroxyoxetan-3-yl)phenyl]methyl]cyclohexyl]methanone] are 0.019 µM and 0.006 µM.
In the case of `N#Cc1cncc([C@@H]2CCON2C(=O)[C@H]2CC[C@H](Cn3ccc4c(F)cc(C#N)cc43)CC2)c1` [compound 130, trans-1-((4-((S)-3-(5-cyanopyridin-3-yl)isoxazolidine-2-carbonyl)cyclohexyl)methyl)-4-fluoro-1H-indole-6-carbonitrile], the 50% inhibitory concentration (IC50) in test [1] is 0.011 µM; in test [2], 0.002 µM.
Consider `Cc1cc(C[C@H]2CC[C@H](C(=O)N3OCC[C@H]3c3cc(F)cc(C#N)c3)CC2)cnn1` [compound 302, trans-3-fluoro-5-[(3S)-2-[4-[(6-methylpyridazin-4-yl)methyl]cyclohexanecarbonyl]isoxazolidin-3-yl]benzonitrile], for which the figures for the IC50 in test [1] and in test [2] were 0.031 µM and 0.037 µM, respectively.
As for `Cc1ncc(C[C@H]2CC[C@H](C(=O)N3OCC[C@H]3c3cc(F)cc(F)c3)CC2)cn1` [compound 264, trans-[(3S)-3-(3,5-difluorophenyl)isoxazolidin-2-yl]-[4-[(2-methylpyrimidin-5-yl)methyl]cyclohexyl]methanone], the IC50 in test [1] worked out at 0.014 µM; in test [2], 0.016 µM.
Consider `N#Cc1cc(F)cc([C@@H]2CCON2C(=O)[C@H]2CC[C@H](Cn3cc4ccc(C#N)cc4n3)CC2)c1` [compound 30, trans-2-((4-((S)-3-(3-cyano-5-fluorophenyl)isoxazolidine-2-carbonyl)cyclohexyl)methyl)-2H-indazole-6-carbonitrile], for which the IC50 in test [1] was determined as 0.039 µM; in test [2] it was 0.068 µM.
Consider `Cn1ncc2ncc(C[C@H]3CC[C@H](C(=O)N4OCC[C@H]4c4cc(F)cc(F)c4)CC3)cc21` [compound 297, trans-[(3S)-3-(3,5-difluorophenyl)isoxazolidin-2-yl]-[4-[(1-methylpyrazolo[4,3-b]pyridin-6-yl)methyl]cyclohexyl]methanone], for which the IC50 in test [1] was 0.014 µM; in test [2], 0.007 µM.
The corresponding values for `Cc1cnc([C@@H]2CCON2C(=O)[C@H]2CC[C@H](Cc3ccnn3C)CC2)cn1` [compound 395, trans-[(3S)-3-(5-methylpyrazin-2-yl)-1,2-oxazolidin-2-yl]-[4-[(2-methylpyrazol-3-yl)methyl]cyclohexyl]methanone] are 0.044 µM and 0.045 µM.
